# Test results from publication PMC10916382, “Repurposing screen identifies novel candidates for broad-spectrum coronavirus antivirals and druggable host targets” (Antimicrobial Agents and Chemotherapy, 2024).
# Counter-ions that a name gives are not always drawn. Like-named read-outs stand apart in the source and are kept apart here.
# Tests used:
# [1] = system: SARS-CoV-2
# [2] = system: HCoV-229E; assay: microbe, parasite or virus in culture; assay type: cell-based, Homo sapiens sapiens
# [3] = system: Huh-7.5/F-Luc cells
# [4] = Huh-7.5 cells, dose series, maximum tested dose 5 µM
# [5] = HCoV 229E infection, dose series, max. dose 5 µM, read-out: IC50
Compound,Anti-SARS-CoV-2 screening on Calu-3 cells: viability [% of control] ([1]; Calu-3 cells),Anti-SARS-CoV-2 screening on Calu-3 cells: intracellular SARS-CoV-2 infection measured via immunofluorescence imaging [% of control] ([1]; Calu-3 cells),IC50 ([2]; read-out: IC50) [µM],"CC50 (µM) [3, 4]",% cell viability at max. dose [5 µM] ([3]; at max. dose 5 µM) [%],"IC50 [2, 5] [µM]","IC50 ([2]; Human coronavirus 229E, Huh7.5) [µM]","IC50 ([2]; HCoV-229E/R-Luc on Huh-7.5/F-Luc cells, dose series, max. dose 5 µM, read-out: IC50 (µM), HCoV 229E) [µM]","% cell viability at max. dose [5 µM] ([3]; Huh-7.5/F-Luc cells, 5 µM) [%]","CC50 (µM) ([3]; Huh-7.5/F-Luc cells, maximum tested dose 5 µM)",Anti-SARS-CoV-2 screening on Calu-3 cells: viability [% of control] [1],% cell viability at max. dose [5 µM] [3] [%],CC50 (µM) [3]
CN1C2CCC1CC(OC(c1ccccc1)c1ccc(Cl)cc1)C2.Cl (stereo not shown),110.96 % of control,110.06 % of control,0.69,greater than maximum tested dose,144.12,,,,,,,,
CCNCc1cncc(-c2ccc3[nH]nc(-c4nc5c(F)cc(F)cc5[nH]4)c3c2)c1C [AG-024322],54.61 % of control,108.94 % of control,,greater than maximum tested dose,151.27,0.78,,,,,,,
COc1cc(C(C)=O)ccc1OCCCN1CCC(C(O)(c2ccc(F)cc2)c2ccc(F)cc2)CC1 [AHR-5333],103.33 % of control,98.57 % of control,,greater than maximum tested dose,162.61,1,,,,,,,
Nc1ncccc1-c1nc2ccc(-c3ccccc3)nc2n1-c1ccc(C2(N)CCC2)cc1 [ARQ-092 (Miransertib mesylate)],27.64 % of control,126.86 % of control,,greater than maximum tested dose,98.72,,,,,,,,
COc1ccc2cc1Oc1ccc(cc1)C[C@H]1c3c(cc4c(c3Oc3cc5c(cc3OC)CCN(C)[C@@H]5C2)OCO4)CCN1C [Cepharanthine],,,,greater than maximum tested dose,,,0.47,,,,,,
CCN(CC)CCCN1c2ccccc2Sc2ccc(Cl)cc21.Cl [Chlorproethazine HCl],91.47 % of control,133.96 % of control,,greater than maximum tested dose,142.02,0.83,,,,,,,
CN(C)CCCN1c2ccccc2Sc2ccc(Cl)cc21 [Chlorpromazine69-09-0],118.10 % of control,120.36 % of control,,greater than maximum tested dose,144.29,0.77,,,,,,,
Oc1ccc(CCN2CCC(Nc3nc4ccccc4n3Cc3ccc(F)cc3)CC2)cc1 [DESMETHYLASTEMIZOLE],121.52 % of control,109.56 % of control,1.07,greater than maximum tested dose,160.37,,,,,,,,
CC/C(=C(\c1ccc(O)cc1)c1ccc(OCCNC)cc1)c1ccccc1.Cl [Endoxifen (hydrochloride)],90.44 % of control,114.51 % of control,,greater than maximum tested dose,148.79,0.56,,,,,,,
C=C1C[C@@H]2CC[C@@]34C[C@H]5O[C@H]6[C@@H](O3)[C@H]3O[C@H](CC[C@@H]3O[C@H]6[C@H]5O4)CC(=O)C[C@@H]3[C@@H](OC)[C@@H](C[C@H](O)CN)O[C@H]3C[C@H]3O[C@@H](CC[C@@H]1O2)C[C@@H](C)C3=C [Eribulin (mesylate)],41.43 % of control,29.49 % of control,,greater than maximum tested dose,97.37,0.05,,,,,,,
CN1CC[C@H](c2c(O)cc(O)c3c(=O)cc(-c4ccccc4Cl)oc23)[C@H](O)C1 [Flavopiridol (Alvocidib)],90.90 % of control,15.82 % of control,,greater than maximum tested dose,115.14,0.14,,,,,,,
CN(C)C(C)(C)CSc1nc2ccccc2cc1-c1ccccc1 [ICI-170809],98.23 % of control,103.59 % of control,,greater than maximum tested dose,138.76,0.52,,,,,,,
O=S(=O)(Nc1ccc(CCNC[C@H](O)c2cccnc2)cc1)c1ccc(-c2nc(-c3ccc(C(F)(F)F)cc3)cs2)cc1 [L 796568],84.86 % of control,111.47 % of control,,greater than maximum tested dose,149.63,0.77,,,,,,,
Cc1ccc(Sc2ccccc2C2CCNCC2)cc1 [LU-AA24530],106.74 % of control,100.77 % of control,,greater than maximum tested dose,150.91,0.68,,,,,,,
Oc1ccc2c(c1)CC[C@H](c1ccccc1)[C@H]2c1ccc(OCCN2CCCC2)cc1 [Lasofoxifene tartrate],103.26 % of control,99.99 % of control,,greater than maximum tested dose,142.22,0.54,,,,,,,
c1ccc(CCCC(Oc2ccccc2OCc2ccccc2)C2=NCCN2)cc1 (stereo not shown) [MDL 102588],101.49 % of control,108.93 % of control,,greater than maximum tested dose,109.08,0.52,,,,,,,
CC(C)(O)c1ccc2c(c1)/C(=C/CCN1CC[C@](O)(c3ccc(Cl)cc3)C(C)(C)C1)c1cccnc1CO2 [MLN-3897],106.59 % of control,101.50 % of control,,greater than maximum tested dose,122.09,0.96,,,,,,,
Cc1c(-c2ccccc2)oc2ccc(OCCCCCCN3CCC(O)CC3)cc2c1=O [NPC 16377],101.43 % of control,119.40 % of control,,greater than maximum tested dose,107.69,1.07,,,,,,,
OC(CNCC(O)C1CCc2cc(F)ccc2O1)C1CCc2cc(F)ccc2O1 (stereo not shown) [Nebivolol HCl],,,,greater than maximum tested dose,,,1,,,,,,
OCCNCCOc1ccc(/C(=C(\c2ccccc2)C(F)(F)F)c2ccccc2)cc1 [PANOMIFENE],98.59 % of control,95.32 % of control,0.89,greater than maximum tested dose,141.70,,,,,,,,
Oc1cccc[c]1[Hg][Cl] [RFM-006-841-7],123.69 % of control,99.62 % of control,,,,,,1.35,91.70,greater than maximum tested dose,,,
CC1(C)CC[C@]2(NC(=O)C(C)(F)F)CC[C@]3(C)[C@H](C(=O)C=C4[C@@]5(C)C=C(C#N)C(=O)C(C)(C)[C@@H]5CC[C@]43C)[C@@H]2C1 [RTA-63415 / Omaveloxolone],,99.52 % of control,,,,0.08,,,,,122.72 % of control,77.27,greater than maximum tested dose
COc1cc2c(cc1N1C[C@@H](C)N[C@@H](C)C1)N(C(=O)c1ccc(-c3ccc(-c4noc(C)n4)cc3C)cc1)CC2 [SB-616234-A],119.80 % of control,117.99 % of control,,greater than maximum tested dose,143.19,0.57,,,,,,,
C1=C(c2ccc(CN3CCCCC3)cc2)N2CCN=C2c2ccccc21 [SDZ-62-434],104.96 % of control,96.11 % of control,,greater than maximum tested dose,157.85,0.76,,,,,,,
CN(C)CCCOC(CCCCc1ccccc1)c1ccccc1 (stereo not shown) [SM-3163],103.94 % of control,105.69 % of control,,greater than maximum tested dose,166.12,0.77,,,,,,,
